This assay relates to rats. It counts as in vivo, male Sprague-Dawley rats. The conditions noted are these: 40 mg/kg oral. How it is done: In the present study the test compounds were administered perorally by means of a stomach tube as an aqueous suspension in 5% acacia gum at a constant volume of 10 ml/kg to male Swiss mice and male Sprague-Dawley rats. Control rats and mice were given a corresponding volume of the aqueous suspension medium. The results were statistically evaluated by Dunnett's test (C. V. Dunnett.: J.A. Stat. Ass., 40, 1096, 1955).
1. Anti-inflammatory activity
The anti-inflammatory activity was determined in the carrageenin edema test according to Winter et al., (see C. A. Winter, E. A. Risley, G. W. Muss: J. Pharm. Exp. Ther., 141, 369, 1963).
The edema was provoked in rats by a subplantar injection into the right hind paw of 0.1 ml of a 1% carrageenin suspension in sterile saline solution.
Rats were treated orally with the test compound 60 minutes before the injection of carrageenin. The volume of the foot was measured with a mercury differential volume-meter immediately before injection of the phlogistic agent, and 3 and 5 hours thereafter. The anti-inflammatory activity was evaluated as percent edema inhibition of treated rats in comparison with the controls, according to the following formula: [formula]

SMILES strings stand for the structures. Counter-ions that a name gives are not always drawn. Like-named read-outs stand apart in the source and are kept apart here.

Take `CCCCC(C(=O)O)C(=O)N(Nc1ccccc1)c1ccccc1` (centres unmarked) [B, Calcium salt of butylpropanedioic acid mono(1,2-diphenylhydrazide), reference compound]: the Edema volume, mean ± standard deviation is, setting by setting: (3 h after carrageenin) 1.42 ± 0.27 mL; (5 h after carrageenin) 2.06 ± 0.42 mL.

Values taken from patent US4301177A, “(3-Methyl-2-butenyl)propanedioic acid mono (1,2-diphenylhydrazide) and salts thereof” (Istituto de Angeli S.p.A., priority 1979, dated 1981).
